We go through 1 compound from patent publication US5914242A, “Method for diminishing myocardial infarction using protein phosphatase inhibitors” (priority 1997, dated 1999).

For one experiment, the system named is PP1/PP2A-chimera (CRHM2). Kind of experiment: Inhibition of recombinant PP1/PP2A chimera. The class given is biochemical, human PP1 / bovine PP2A. The settings on record: enzyme printed as rPP2Ac-1. As to the method: FIG. 6: Sequence of a PP1/PP2A chimera. To characterize the fostriecin binding site, the N-terminal region of PP1 was ligated to the C-terminal region of PP2A (in bold) to produce a PP1/PP2A-chimera (CRHM2). Previous studies indicate that the okadaic acid binding domain is contained in the C-terminal region of PP2A that was incorporated into CRHM2.
FIG. 7: Effect of fostriecin and okadaic acid on the activity of recombinant CRHM2. CRHM2 activity was assayed in the presence of the indicated amount of fostriecin (FIG. 7A) or okadaic acid (FIG. 7B). […] Assays were conducted as described in FIG. 5. Each point represents the mean ± SE (n>6).
(§1) PP1, an enzyme highly homologous to PP2A, could be expressed in a stable manner and in relatively large amounts. Thus, human PP1 was cloned and subcloned into a bacterial expression vector as was done for PP2A. […] To create a hybrid enzyme (a PP1/PP2A chimera) that could be expressed stably like rPP1 but would bind okadaic acid with high affinity like PP2A, a number of mutant forms of PP1 and PP2A were constructed. Then, through mutational analysis, the okadaic acid binding domain of PP2A was identified. The okadaic acid binding domain from PP2A was cloned behind the amino terminal domain of PP1. The hybrid, referred to as CRHM-2, was subcloned into an expression vector. Restriction analysis of CRHM-2 confirmed the identity of the construct.
In these studies, the bacterial expressed PP1/PP2A hybrid enzyme was produced by growing appropriate strains of transformed E. coli at 18° C. for 48 hours in LB-media containing 50 μg/ml ampicillin, 1 mM MnCl2, and 50 μM IPTG. The bacteria were lysed with a French Press, and after centrifugation at 15,000×g for 45 min, the phosphatase was partially purified via ion-exchange [High Q (BioRad) and MonoQ (Pharmacia)] and affinity [Heparin-Sepharose (Pharmacia)] chromatography. The sensitivity of the chimera to fostriecin was determined employing the same protein phosphatase assay employed with endogenous PP1 or PP2A, with the addition of MnCl2 (1 mM) to the assay buffer.

A further experiment deals with rPP1. Kind of experiment: Inhibition of recombinant PP1. It counts as biochemical. Particulars: bacterially expressed human PP1.
Excerpt: as §1

For the compound `C=C1[C@@H](O)[C@@H]2O[C@]3(CC[C@H](/C=C/[C@@H](C)[C@@H]4CC(C)=C[C@@]5(O[C@H](C[C@@](C)(O)C(=O)O)CC[C@H]5O)O4)O3)CC[C@H]2O[C@@H]1[C@@H](O)C[C@H](C)[C@H]1O[C@@]2(CCCCO2)CC[C@H]1C` [okadaic acid, reference compound], in the experiment with PP1/PP2A-chimera (CRHM2), the “binding affinity to the recombinant hybrid enzyme” value was “comparable affinity to PP2A”. Besides, the “sensitivity of rPP1 to inhibition, relative to PP2A” value in the experiment on rPP1 is given as “less sensitive to inhibition by okadaic acid than PP2A”.
